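Grown in 96-well plates, cells were treated for 48 hours with each compound at five concentrations. Insufficient inhibition: endpoint recorded as highest concentration tested. TGI marks complete inhibition of growth.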
The compounds below were run on KM12 colon (assay: NCI-60 cell line screen, 48 h).

SMILES | TGI [µM]
O=C(ON=C1c2ccccc2C(Br)C(Br)c2ccccc21)c1ccccc1 (configuration not stated) | 33.5
CC(=O)c1ccc(Oc2c3ccccc3nc3ccccc23)cc1 | 22.7
C[n+]1cc2cc(O)c(O)cc2c2ccc3cc(O)c(O)cc3c21 | > 100
COc1ccc2c(c1)c1c(n2CCN2CCCCC2)-c2cccc(OC)c2CC1 | 28.8
COc1ccc2nc(NC(=O)/C(C#N)=C/c3ccccc3)sc2c1 | > 73.3
Cc1c(C)n(-c2ccccc2)c2nc(S(C)=O)nc(S(C)=O)c12 (configuration not stated) | 28.1
CC1(C)CC(=O)C2=C(C1)C(c1ccccc1Cl)C1C(=O)CC(C)(C)CC1(O)O2 (configuration not stated) | > 100
Cc1ccc2c(c1C)C(=O)C1(Cc3cc4c(cc3C1=O)CCC4)C2 (configuration not stated) | > 100
C[C@@H]1CC[C@@]2(C)C(C(=O)O)=CCCC2[C@@]1(C)CC(=O)c1ccoc1 (some centres not stated) | > 25
O=C(CCc1cc(O)cc(O)c1)NCCc1cc(OCc2ccccc2)cc(OCc2ccccc2)c1 | 28.1
c1ccc(C2=NC3OC2c2ccccc23)cc1 (configuration not stated) | > 10
O=c1oc2ccc3ccccc3c2cc1-c1cn2ccsc2n1 | 66.2
CCOC(=O)CSc1nc(N)c2c(-c3ccccc3)c3c(nc2n1)CCCC3 | > 100
COC(=O)/C=C(/C=C1/C(C#N)=C(N)N(c2ccc(Cl)cc2)C1(C)/C(=C\C(=O)OC)C(=O)OC)C(=O)OC (configuration not stated) | 37
Cc1ccccc1-c1nc2c(N)nc(N)nc2nc1N | > 100
CCOC(=O)c1c(N2CCCC2)[nH]c(=O)c(C(c2ccc(OC)cc2)c2c(O)c(C(=O)OCC)c(N3CCCC3)[nH]c2=O)c1O | > 100
CC1CC(N2CCOCC2)=Nc2ccccc2N1C (configuration not stated) | > 100

SMILES | TGI [µM]
CCOC1C=CC(=O)C(CO)O1 (configuration not stated) | 31.5
CC(C)C(Br)CCC1=CCC(Br)(Br)C1 (configuration not stated) | 27.5
Cc1c2cccc-2c2cc(O)c3ccccc3c2n1-c1ccc(N(C)C)cc1 | 23.1
O=CC(I)=C(c1ccccc1)c1ccccc1 | 28.7
c1c[nH]c(-c2cccc3nsnc23)c1 | > 100
Cn1c2ccccc2c2ccc3c(c21)C(=O)c1ccc2c4ccccc4n(C)c2c1C3=O | > 100
COc1ccc(C)cc1N1C(=O)C2ON(Cc3ccc(CC(N)=O)cc3)C(c3c4ccccc4c(Cl)c4ccccc34)C2C1=O (configuration not stated) | 29.1
NS(=O)(=O)c1nnc(NC(=O)N(c2ccccc2)c2ccccc2)s1 | 56.8
COC(=O)c1ccccc1C1CN=NC12Cc1c(ccc(C)c1C)C2=O (configuration not stated) | > 100
CN(C)CCN(c1ccccn1)c1ccccn1 | > 100
O=C(O)c1nc2ccc(C(F)(F)F)cc2[nH]c1=O | > 100
CN(CCN1CCCC1)C1CCc2cc(Cl)c(Cl)cc2C1 (configuration not stated) | 40.4
COC(=O)/C=C(\C)CC/C=C(\C)CCC1OC1(C)C (configuration not stated) | 20.8
CC(C)NC(=O)OCc1c(COC(=O)NC(C)C)n(C)c2c1ccc1sccc12 | 31.2
O=C(CC(NC(=O)C(F)(F)F)C(=O)O)OCc1ccccc1 (configuration not stated) | > 100
COc1cccc(C2c3cc4c(cc3OC(O)C2C)OCO4)c1OC (configuration not stated) | 33.9

The compounds below were run on SK-MEL-28 melanoma (assay: NCI-60 cell line screen, 48 h).

SMILES | TGI [µM]
O=C(ON=C1c2ccccc2C(Br)C(Br)c2ccccc21)c1ccccc1 (configuration not stated) | 33.2
CC(=O)c1ccc(Oc2c3ccccc3nc3ccccc23)cc1 | 28.5
C[n+]1cc2cc(O)c(O)cc2c2ccc3cc(O)c(O)cc3c21 | > 100
COc1ccc2c(c1)c1c(n2CCN2CCCCC2)-c2cccc(OC)c2CC1 | 35
COc1ccc2nc(NC(=O)/C(C#N)=C/c3ccccc3)sc2c1 | > 100
Cc1c(C)n(-c2ccccc2)c2nc(S(C)=O)nc(S(C)=O)c12 (configuration not stated) | 14.9
CC1(C)CC(=O)C2=C(C1)C(c1ccccc1Cl)C1C(=O)CC(C)(C)CC1(O)O2 (configuration not stated) | > 100
Cc1ccc2c(c1C)C(=O)C1(Cc3cc4c(cc3C1=O)CCC4)C2 (configuration not stated) | > 100
C[C@@H]1CC[C@@]2(C)C(C(=O)O)=CCCC2[C@@]1(C)CC(=O)c1ccoc1 (some centres not stated) | > 25
O=C(CCc1cc(O)cc(O)c1)NCCc1cc(OCc2ccccc2)cc(OCc2ccccc2)c1 | 55
c1ccc(C2=NC3OC2c2ccccc23)cc1 (configuration not stated) | > 10
O=c1oc2ccc3ccccc3c2cc1-c1cn2ccsc2n1 | 57.3
CCOC(=O)CSc1nc(N)c2c(-c3ccccc3)c3c(nc2n1)CCCC3 | > 100
COC(=O)/C=C(/C=C1/C(C#N)=C(N)N(c2ccc(Cl)cc2)C1(C)/C(=C\C(=O)OC)C(=O)OC)C(=O)OC (configuration not stated) | 36.2
Cc1ccccc1-c1nc2c(N)nc(N)nc2nc1N | > 100
CCOC(=O)c1c(N2CCCC2)[nH]c(=O)c(C(c2ccc(OC)cc2)c2c(O)c(C(=O)OCC)c(N3CCCC3)[nH]c2=O)c1O | > 100
CC1CC(N2CCOCC2)=Nc2ccccc2N1C (configuration not stated) | > 100

SMILES | TGI [µM]
CCOC1C=CC(=O)C(CO)O1 (configuration not stated) | 33.3
CC(C)C(Br)CCC1=CCC(Br)(Br)C1 (configuration not stated) | 29
Cc1c2cccc-2c2cc(O)c3ccccc3c2n1-c1ccc(N(C)C)cc1 | 35
O=CC(I)=C(c1ccccc1)c1ccccc1 | 31.8
c1c[nH]c(-c2cccc3nsnc23)c1 | > 100
Cn1c2ccccc2c2ccc3c(c21)C(=O)c1ccc2c4ccccc4n(C)c2c1C3=O | > 100
COc1ccc(C)cc1N1C(=O)C2ON(Cc3ccc(CC(N)=O)cc3)C(c3c4ccccc4c(Cl)c4ccccc34)C2C1=O (configuration not stated) | > 100
NS(=O)(=O)c1nnc(NC(=O)N(c2ccccc2)c2ccccc2)s1 | > 100
COC(=O)c1ccccc1C1CN=NC12Cc1c(ccc(C)c1C)C2=O (configuration not stated) | > 100
CN(C)CCN(c1ccccn1)c1ccccn1 | > 100
O=C(O)c1nc2ccc(C(F)(F)F)cc2[nH]c1=O | > 100
CN(CCN1CCCC1)C1CCc2cc(Cl)c(Cl)cc2C1 (configuration not stated) | 67.9
COC(=O)/C=C(\C)CC/C=C(\C)CCC1OC1(C)C (configuration not stated) | 23.3
CC(C)NC(=O)OCc1c(COC(=O)NC(C)C)n(C)c2c1ccc1sccc12 | 57.3
O=C(CC(NC(=O)C(F)(F)F)C(=O)O)OCc1ccccc1 (configuration not stated) | > 100
COc1cccc(C2c3cc4c(cc3OC(O)C2C)OCO4)c1OC (configuration not stated) | 39.5

These compounds were tested on SK-MEL-2 melanoma (assay: NCI-60 cell line screen, 48 h).

SMILES | TGI [µM]
O=C(ON=C1c2ccccc2C(Br)C(Br)c2ccccc21)c1ccccc1 (configuration not stated) | > 63.6
CC(=O)c1ccc(Oc2c3ccccc3nc3ccccc23)cc1 | 21.4
C[n+]1cc2cc(O)c(O)cc2c2ccc3cc(O)c(O)cc3c21 | 12
COc1ccc2c(c1)c1c(n2CCN2CCCCC2)-c2cccc(OC)c2CC1 | 32.3
COc1ccc2nc(NC(=O)/C(C#N)=C/c3ccccc3)sc2c1 | > 100
Cc1c(C)n(-c2ccccc2)c2nc(S(C)=O)nc(S(C)=O)c12 (configuration not stated) | 10.1
CC1(C)CC(=O)C2=C(C1)C(c1ccccc1Cl)C1C(=O)CC(C)(C)CC1(O)O2 (configuration not stated) | > 100
Cc1ccc2c(c1C)C(=O)C1(Cc3cc4c(cc3C1=O)CCC4)C2 (configuration not stated) | > 100
C[C@@H]1CC[C@@]2(C)C(C(=O)O)=CCCC2[C@@]1(C)CC(=O)c1ccoc1 (some centres not stated) | > 25
O=C(CCc1cc(O)cc(O)c1)NCCc1cc(OCc2ccccc2)cc(OCc2ccccc2)c1 | 28.2
c1ccc(C2=NC3OC2c2ccccc23)cc1 (configuration not stated) | > 10
O=c1oc2ccc3ccccc3c2cc1-c1cn2ccsc2n1 | > 100
CCOC(=O)CSc1nc(N)c2c(-c3ccccc3)c3c(nc2n1)CCCC3 | > 100
COC(=O)/C=C(/C=C1/C(C#N)=C(N)N(c2ccc(Cl)cc2)C1(C)/C(=C\C(=O)OC)C(=O)OC)C(=O)OC (configuration not stated) | 72.2
Cc1ccccc1-c1nc2c(N)nc(N)nc2nc1N | > 100
CCOC(=O)c1c(N2CCCC2)[nH]c(=O)c(C(c2ccc(OC)cc2)c2c(O)c(C(=O)OCC)c(N3CCCC3)[nH]c2=O)c1O | 53.9

From PubChem BioAssay (NCI)
